Test results: publication PMC2577671, “Evaluation of Dimebon in cellular model of Huntington's disease” (Molecular Neurodegeneration, 2008)

Tests used:
Histamine H2 receptor = target: T1, Histamine H2 receptor (Homo sapiens, UniProt P25021); experiment: MDS Pharma Services binding screen at […]
T1 construct: gene HRH2

α1A-Adrenergic receptor = target: T2, α1A-Adrenergic receptor (Rattus norvegicus, UniProt P43140); experiment: MDS Pharma Services binding screen at […]
T2 construct: gene Adra1a

Adrenergic beta2 = target: T3, Adrenergic beta2 (Homo sapiens, UniProt P07550); experiment: biochemical; design: MDS Pharma Lead Profiling screen, binding assays, per cent inhibition, duplicate
T3 construct: gene ADRB2
Experimental: (§1) The activity of Dimebon against selected set of biochemical targets was performed by MDS Pharma Services . The Dimebon was provided to MDS Pharma as dry powder, dissolved in DMSO and tested in 10 μM concentrations. The standard Lead Profiling + CYP450 screen was performed according to MDS Pharma specifications with additional custom-chosen targets added to the screen as indicated. To further understand potential mechanisms responsible for clinical effects of Dimebon, we evaluated Dimebon against a set of selected biochemical targets. Dimebon evaluation was performed by MDS Pharma Services . The standard Lead Profiling + CYP450 screen was performed with additional custom-selected targets added to the screen. The results of the screen obtained at 10 μM of Dimebon are provided as Additional File 3. […] Low affinity (50–60% inhibition) interactions were also observed for CYP450, 2C19 receptor, voltage-gated L-type Ca^2+ channel, Dopamine D4.2 receptor, and Serotonin 5-HT1 receptor. […] Supplementary file 1750-1326-3-15-S3.pdf: Additional file 3 The results of Dimebon screening against a selected set of biochemical targets. The complete results obtained by MDS Pharma with a selected list of biochemical targets using 10 μM of Dimebon as a probe. The Cat numbers refer to the MDS Pharma Services assay specification. The receptors and species are listed. Dimebon was tested at 10 μM concentratio in duplicate. The % inhibition by Dimebon is shown numerically and graphically for each receptor. Significant targets (defined as % inhibition > 50%) are highlighted in yellow. Click here for file

Serotonin 5-HT2B = target: T4, Serotonin 5-HT2B (Homo sapiens, UniProt P41595); experiment: biochemical; design: MDS Pharma Lead Profiling screen, binding assays, per cent inhibition, duplicate
T4 construct: gene HTR2B
Experimental: as §1

[1] = target: T5, Serotonin 5-HT5A receptor (Homo sapiens, UniProt P47898); experiment: biochemical; design: MDS Pharma Lead Profiling screen, binding assays, per cent inhibition, duplicate
T5 construct: gene HTR5A
Experimental: as §1

Serotonin 5-HT1B = target: T6, Serotonin 5-HT1B (Rattus norvegicus, UniProt P28564); experiment: biochemical; design: MDS Pharma Lead Profiling screen, binding assays, per cent inhibition, duplicate
T6 construct: gene Htr1b
Experimental: as §1

Tachykinin NK1 = target: T7, Tachykinin NK1 (Homo sapiens, UniProt P25103); experiment: biochemical; design: MDS Pharma Lead Profiling screen, binding assays, per cent inhibition, duplicate
T7 construct: gene TACR1
Experimental: as §1

[2] = target: T8, Transporter, Dopamine (DAT) (Homo sapiens, UniProt Q01959); experiment: biochemical; design: MDS Pharma Lead Profiling screen, binding assays, per cent inhibition, duplicate
T8 construct: gene SLC6A3
Experimental: as §1

Glucocorticoid = target: T9, Glucocorticoid (Homo sapiens, UniProt P04150); experiment: biochemical; design: MDS Pharma Lead Profiling screen, binding assays, per cent inhibition, duplicate
T9 construct: gene NR3C1
Experimental: as §1

Muscarinic M2 = target: T10, Muscarinic M2 (Homo sapiens, UniProt P08172); experiment: biochemical; design: MDS Pharma Lead Profiling screen, binding assays, per cent inhibition, duplicate
T10 construct: gene CHRM2
Experimental: as §1

Histamine H1 receptor = target: T11, Histamine H1 receptor (Homo sapiens, UniProt P35367); experiment: biochemical; design: MDS Pharma Lead Profiling screen, binding assays, per cent inhibition, duplicate
T11 construct: gene HRH1
Experimental: as §1

Dopamine D2S receptor = target: T12, Dopamine D2S receptor (Homo sapiens, UniProt P14416); experiment: biochemical; design: MDS Pharma Lead Profiling screen, binding assays, per cent inhibition, duplicate
T12 construct: gene DRD2; D2S
Experimental: as §1

Adenosine A1 = target: T13, Adenosine A1 (Homo sapiens, UniProt P30542); experiment: biochemical; design: MDS Pharma Lead Profiling screen, binding assays, per cent inhibition, duplicate
T13 construct: gene ADORA1
Experimental: as §1

GABAB1A = target: T14, GABAB1A (Homo sapiens, UniProt Q9UBS5); experiment: biochemical; design: MDS Pharma Lead Profiling screen, binding assays, per cent inhibition, duplicate
T14 construct: gene GABBR1; isoform 1A
Experimental: as §1

Adenosine A2A = target: T15, Adenosine A2A (Homo sapiens, UniProt P29274); experiment: biochemical; design: MDS Pharma Lead Profiling screen, binding assays, per cent inhibition, duplicate
T15 construct: gene ADORA2A
Experimental: as §1

Sigma 1 = target: T16, Sigma 1 (Homo sapiens, UniProt Q99720); experiment: biochemical; design: MDS Pharma Lead Profiling screen, binding assays, per cent inhibition, duplicate
T16 construct: gene SIGMAR1
Experimental: as §1

Melatonin MT1 = target: T17, Melatonin MT1 (Homo sapiens, UniProt P48039); experiment: biochemical; design: MDS Pharma Lead Profiling screen, binding assays, per cent inhibition, duplicate
T17 construct: gene MTNR1A
Experimental: as §1

[3] = target: T18, Transporter, Norepinephrine (NET) (Homo sapiens, UniProt P23975); experiment: biochemical; design: MDS Pharma Lead Profiling screen, binding assays, per cent inhibition, duplicate
T18 construct: gene SLC6A2
Experimental: as §1

[4] = target: T19, Epidermal Growth Factor (EGF) (Homo sapiens, UniProt P00533); experiment: biochemical; design: MDS Pharma Lead Profiling screen, binding assays, per cent inhibition, duplicate
T19 construct: gene EGFR
Experimental: as §1

Opiate delta (OP1, DOP) = target: T20, Opiate delta (OP1, DOP) (Homo sapiens, UniProt P41143); experiment: biochemical; design: MDS Pharma Lead Profiling screen, binding assays, per cent inhibition, duplicate
T20 construct: gene OPRD1
Experimental: as §1

Sigma 2 = target: T21, Sigma 2 (Rattus norvegicus, UniProt Q5U3Y7); experiment: biochemical; design: MDS Pharma Lead Profiling screen, binding assays, per cent inhibition, duplicate
T21 construct: gene Tmem97
Experimental: as §1

α1B-Adrenergic receptor = target: T22, α1B-Adrenergic receptor (Rattus norvegicus, UniProt P15823); experiment: MDS Pharma Services binding screen at […]
T22 construct: gene Adra1b
T22 sequence (P15823 whole entry): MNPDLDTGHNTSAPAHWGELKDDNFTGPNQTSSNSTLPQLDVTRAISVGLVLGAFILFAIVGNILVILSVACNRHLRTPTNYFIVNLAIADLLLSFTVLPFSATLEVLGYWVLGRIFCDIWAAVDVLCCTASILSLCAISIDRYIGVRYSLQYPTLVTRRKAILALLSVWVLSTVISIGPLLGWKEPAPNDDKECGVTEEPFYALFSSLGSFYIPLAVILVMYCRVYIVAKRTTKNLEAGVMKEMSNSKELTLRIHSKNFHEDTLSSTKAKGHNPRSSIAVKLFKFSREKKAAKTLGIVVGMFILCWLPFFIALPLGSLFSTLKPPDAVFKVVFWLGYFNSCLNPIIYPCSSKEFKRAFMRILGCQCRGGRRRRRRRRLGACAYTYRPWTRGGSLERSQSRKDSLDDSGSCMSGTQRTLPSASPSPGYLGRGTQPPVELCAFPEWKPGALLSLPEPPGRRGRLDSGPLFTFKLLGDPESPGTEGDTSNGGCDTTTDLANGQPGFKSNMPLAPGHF

T7 sequence (P25103 whole entry): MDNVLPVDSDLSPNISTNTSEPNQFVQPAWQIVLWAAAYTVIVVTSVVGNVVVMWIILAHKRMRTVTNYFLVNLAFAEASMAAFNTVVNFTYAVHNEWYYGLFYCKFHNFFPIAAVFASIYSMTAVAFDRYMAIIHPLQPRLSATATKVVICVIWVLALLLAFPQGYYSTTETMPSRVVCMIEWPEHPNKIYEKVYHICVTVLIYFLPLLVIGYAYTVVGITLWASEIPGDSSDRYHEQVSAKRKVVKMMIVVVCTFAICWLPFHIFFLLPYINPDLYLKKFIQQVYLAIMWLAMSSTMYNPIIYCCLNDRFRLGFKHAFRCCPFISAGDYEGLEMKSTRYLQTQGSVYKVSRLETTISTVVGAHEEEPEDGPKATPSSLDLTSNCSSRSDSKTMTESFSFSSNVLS
T11 sequence (P35367 whole entry): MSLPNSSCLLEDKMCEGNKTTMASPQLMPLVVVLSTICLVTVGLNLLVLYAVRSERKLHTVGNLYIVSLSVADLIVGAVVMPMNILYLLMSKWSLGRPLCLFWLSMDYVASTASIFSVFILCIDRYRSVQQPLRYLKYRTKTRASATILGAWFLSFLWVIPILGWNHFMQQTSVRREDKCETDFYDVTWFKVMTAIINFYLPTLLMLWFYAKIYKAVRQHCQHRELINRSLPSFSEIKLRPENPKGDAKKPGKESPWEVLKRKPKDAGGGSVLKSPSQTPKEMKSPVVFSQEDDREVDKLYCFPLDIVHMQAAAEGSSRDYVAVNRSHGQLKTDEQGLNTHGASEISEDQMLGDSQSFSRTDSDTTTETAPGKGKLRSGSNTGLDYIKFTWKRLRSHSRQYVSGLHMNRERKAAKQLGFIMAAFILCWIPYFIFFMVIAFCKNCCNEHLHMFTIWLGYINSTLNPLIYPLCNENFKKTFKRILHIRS
T6 sequence (P28564 whole entry): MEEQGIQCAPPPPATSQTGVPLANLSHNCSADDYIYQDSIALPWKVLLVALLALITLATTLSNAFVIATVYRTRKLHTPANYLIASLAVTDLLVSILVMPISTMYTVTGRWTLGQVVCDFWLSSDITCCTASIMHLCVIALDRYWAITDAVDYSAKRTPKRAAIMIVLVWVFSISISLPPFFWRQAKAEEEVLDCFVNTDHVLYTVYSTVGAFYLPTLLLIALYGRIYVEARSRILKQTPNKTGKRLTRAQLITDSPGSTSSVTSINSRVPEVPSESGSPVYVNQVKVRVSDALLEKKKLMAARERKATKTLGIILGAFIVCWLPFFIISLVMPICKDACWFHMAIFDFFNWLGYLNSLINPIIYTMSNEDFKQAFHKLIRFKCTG
T4 sequence (P41595 whole entry): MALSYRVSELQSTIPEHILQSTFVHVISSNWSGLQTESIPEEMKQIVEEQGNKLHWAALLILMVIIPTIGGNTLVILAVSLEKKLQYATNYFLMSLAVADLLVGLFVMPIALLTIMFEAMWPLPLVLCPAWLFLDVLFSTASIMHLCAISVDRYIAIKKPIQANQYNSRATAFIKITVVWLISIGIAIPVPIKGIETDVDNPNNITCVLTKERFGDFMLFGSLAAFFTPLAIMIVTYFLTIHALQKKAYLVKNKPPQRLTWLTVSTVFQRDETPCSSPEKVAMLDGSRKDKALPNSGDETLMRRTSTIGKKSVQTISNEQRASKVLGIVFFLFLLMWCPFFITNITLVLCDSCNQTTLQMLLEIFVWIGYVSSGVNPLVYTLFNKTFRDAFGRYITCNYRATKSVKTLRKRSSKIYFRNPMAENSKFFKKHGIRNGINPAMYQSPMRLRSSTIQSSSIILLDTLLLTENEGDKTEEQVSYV
T1 sequence (P25021 whole entry): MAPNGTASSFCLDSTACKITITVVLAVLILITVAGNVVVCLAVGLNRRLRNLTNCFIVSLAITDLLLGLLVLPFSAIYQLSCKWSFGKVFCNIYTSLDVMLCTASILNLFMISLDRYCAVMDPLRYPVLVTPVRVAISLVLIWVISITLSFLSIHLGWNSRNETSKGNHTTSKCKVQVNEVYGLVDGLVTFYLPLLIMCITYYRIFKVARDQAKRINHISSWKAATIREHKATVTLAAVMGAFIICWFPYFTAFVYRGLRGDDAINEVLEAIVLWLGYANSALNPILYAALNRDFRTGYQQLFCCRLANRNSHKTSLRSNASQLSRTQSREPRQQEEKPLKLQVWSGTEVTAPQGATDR
T13 sequence (P30542 whole entry): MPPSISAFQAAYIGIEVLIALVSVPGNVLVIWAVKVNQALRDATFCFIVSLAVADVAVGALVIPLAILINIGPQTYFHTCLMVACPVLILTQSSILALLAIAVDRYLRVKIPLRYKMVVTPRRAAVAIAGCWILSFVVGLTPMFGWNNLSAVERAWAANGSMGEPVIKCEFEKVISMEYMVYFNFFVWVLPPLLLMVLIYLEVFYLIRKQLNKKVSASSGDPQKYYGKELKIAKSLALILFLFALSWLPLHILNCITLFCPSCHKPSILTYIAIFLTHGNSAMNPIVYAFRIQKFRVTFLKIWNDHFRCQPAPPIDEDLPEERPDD
T8 sequence (Q01959 whole entry): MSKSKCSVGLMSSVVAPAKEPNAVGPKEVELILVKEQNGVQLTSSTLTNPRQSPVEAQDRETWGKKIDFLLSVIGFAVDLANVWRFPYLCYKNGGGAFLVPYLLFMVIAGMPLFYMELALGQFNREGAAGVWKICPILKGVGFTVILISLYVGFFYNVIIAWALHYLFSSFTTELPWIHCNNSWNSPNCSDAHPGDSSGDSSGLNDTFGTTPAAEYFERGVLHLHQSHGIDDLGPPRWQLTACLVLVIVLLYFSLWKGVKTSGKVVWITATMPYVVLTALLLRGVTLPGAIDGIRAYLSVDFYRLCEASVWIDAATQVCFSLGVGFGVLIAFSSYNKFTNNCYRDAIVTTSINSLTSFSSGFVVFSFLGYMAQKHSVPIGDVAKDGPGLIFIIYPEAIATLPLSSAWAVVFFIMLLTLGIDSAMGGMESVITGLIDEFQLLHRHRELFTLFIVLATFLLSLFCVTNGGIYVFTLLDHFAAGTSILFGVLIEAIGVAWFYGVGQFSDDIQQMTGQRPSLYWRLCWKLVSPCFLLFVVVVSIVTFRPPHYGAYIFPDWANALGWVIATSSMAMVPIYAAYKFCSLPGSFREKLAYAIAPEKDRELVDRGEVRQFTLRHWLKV
T5 sequence (P47898 whole entry): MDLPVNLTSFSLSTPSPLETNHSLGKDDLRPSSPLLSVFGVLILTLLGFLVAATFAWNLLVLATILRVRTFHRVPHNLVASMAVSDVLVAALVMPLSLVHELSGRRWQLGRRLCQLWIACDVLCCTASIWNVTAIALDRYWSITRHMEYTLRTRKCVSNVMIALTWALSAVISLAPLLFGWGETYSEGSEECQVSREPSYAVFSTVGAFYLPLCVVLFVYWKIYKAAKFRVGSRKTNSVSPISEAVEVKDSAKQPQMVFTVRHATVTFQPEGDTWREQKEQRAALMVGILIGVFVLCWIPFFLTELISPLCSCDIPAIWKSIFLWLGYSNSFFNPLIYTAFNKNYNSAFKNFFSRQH
T16 sequence (Q99720 whole entry): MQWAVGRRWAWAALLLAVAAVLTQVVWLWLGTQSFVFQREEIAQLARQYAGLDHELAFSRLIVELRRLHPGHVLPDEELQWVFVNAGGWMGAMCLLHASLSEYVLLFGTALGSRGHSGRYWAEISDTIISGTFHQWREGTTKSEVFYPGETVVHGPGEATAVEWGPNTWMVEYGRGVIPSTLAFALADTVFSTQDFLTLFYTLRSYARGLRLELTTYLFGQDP
T9 sequence (P04150 whole entry): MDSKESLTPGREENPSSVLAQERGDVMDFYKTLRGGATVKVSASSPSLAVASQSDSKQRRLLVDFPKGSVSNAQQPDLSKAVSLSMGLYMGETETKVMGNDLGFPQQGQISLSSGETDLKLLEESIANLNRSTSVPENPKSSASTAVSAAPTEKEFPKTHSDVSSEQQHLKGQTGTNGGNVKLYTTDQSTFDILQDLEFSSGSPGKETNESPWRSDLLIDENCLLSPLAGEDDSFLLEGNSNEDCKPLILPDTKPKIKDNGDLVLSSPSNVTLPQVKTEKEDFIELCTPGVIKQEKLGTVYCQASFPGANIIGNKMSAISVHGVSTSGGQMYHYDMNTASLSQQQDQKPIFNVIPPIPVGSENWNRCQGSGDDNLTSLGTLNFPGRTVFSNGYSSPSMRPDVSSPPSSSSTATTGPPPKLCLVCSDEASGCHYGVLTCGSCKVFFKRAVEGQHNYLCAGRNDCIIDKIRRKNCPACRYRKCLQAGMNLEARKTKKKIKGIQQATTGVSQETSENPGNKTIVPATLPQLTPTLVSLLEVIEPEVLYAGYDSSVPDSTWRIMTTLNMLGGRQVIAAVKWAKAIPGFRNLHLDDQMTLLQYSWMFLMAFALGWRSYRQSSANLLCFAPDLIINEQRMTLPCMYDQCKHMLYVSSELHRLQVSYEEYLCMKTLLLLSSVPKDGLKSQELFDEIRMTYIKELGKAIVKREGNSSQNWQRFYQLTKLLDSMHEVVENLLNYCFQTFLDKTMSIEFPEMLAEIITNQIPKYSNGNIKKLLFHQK

Cc1ccc2c(c1)c1c(n2CCc2ccc(C)nc2)CCN(C)C1 [Dimebon, 2,3,4,5-Tetrahydro-2,8-dimethyl-5-(2-(6-methyl-3-pyridyl)ethyl)-1H-pyrido(4,3-b)indole] showed an inhibition at 10 µM (Histamine H2 receptor) of over 90%, an inhibition at 10 µM (α1A-Adrenergic receptor) of over 90% and an inhibition at 10 µM (Adrenergic beta2) of 14%. The inhibition at 10 µM (Serotonin 5-HT2B) was 74%, the inhibition at 10 µM [1] was 99% and the inhibition at 10 µM (Serotonin 5-HT1B) was 48%. It also gave an inhibition at 10 µM (Tachykinin NK1) of 20%, an inhibition at 10 µM [2] of 13% and an inhibition at 10 µM (Glucocorticoid) of 3%. The inhibition at 10 µM (Muscarinic M2) was 8%, the inhibition at 10 µM (Histamine H1 receptor) was 101% and the inhibition at 10 µM (Dopamine D2S receptor) was 83%. The inhibition at 10 µM (Adenosine A1) was 0%, the inhibition at 10 µM (GABAB1A) was -10% and the inhibition at 10 µM (Adenosine A2A) was -3%. The inhibition at 10 µM (Sigma 1) was 28%, the inhibition at 10 µM (Melatonin MT1) was 3% and the inhibition at 10 µM [3] was 20%. It also gave an inhibition at 10 µM [4] of 1%, an inhibition at 10 µM (Opiate delta (OP1, DOP)) of 0% and an inhibition at 10 µM (Sigma 2) of 22%. For the same compound, the inhibition at 10 µM (α1B-Adrenergic receptor) was over 90%.
